Columns and labels:
UO-31 = test: NCI screen, growth of human tumor cells: Renal Cancer UO-31; assay type: cell-based; conditions: UO-31 (Renal Cancer), 10^−4 molar
Description: (§1) In the NCI screening process, each compound was tested and described by a minimum of 60 data points. The test data include, but are not limited to the type of cancer, the molar concentration used in the screen, and the percent growth of the cancer. In some cases, NMR and elemental analysis were used for structural assignment.

RPMI-8226 = test: NCI screen, growth of human tumor cells: Leukemia RPMI-8226; assay type: cell-based; conditions: RPMI-8226 (Leukemia), 10^−4 molar
Description: as §1

U-251 = test: NCI screen, growth of human tumor cells: CNS Cancer U-251; assay type: cell-based; conditions: U-251 (CNS Cancer), 10^−4 molar
Description: as §1

DU-145 = test: NCI screen, growth of human tumor cells: Prostate Cancer DU-145; assay type: cell-based
Description: as §1

MDA-MB-435 = test: NCI screen, growth of human tumor cells: Breast Cancer MDA-MB-435; assay type: cell-based; conditions: MDA-MB-435, 10^−4 molar
Description: as §1

COLO205 = test: NCI screen, growth of human tumor cells: Colon Cancer COLO205; assay type: cell-based; conditions: COLO205 (Colon Cancer), 10^−4 molar
Description: as §1

UACC-62 = test: NCI screen, growth of human tumor cells: Melanoma UACC-62; assay type: cell-based; conditions: UACC-62 (Melanoma), 10^−4 molar
Procedure, shortened: (§2)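 At least 60 data points describe each compound tested by NCI. Cancer type, molar concentration in the screen and percent growth make up the recorded data.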

K562 = test: NCI screen, growth of human tumor cells: Leukemia K562; assay type: cell-based; conditions: K562 (Leukemia), 10^−4 molar
Procedure, shortened: as §2

HCT-15 = test: NCI screen, growth of human tumor cells: Colon Cancer HCT-15; assay type: cell-based; conditions: HCT-15 (Colon Cancer), 10^−4 molar
Procedure, shortened: as §2

HS 578T = test: NCI screen, growth of human tumor cells: Breast Cancer HS 578T; assay type: cell-based; conditions: HS 578T (Breast Cancer), 10^−4 molar
Description: as §1

SK-MEL-5 = test: NCI screen, growth of human tumor cells: Melanoma SK-MEL-5; assay type: cell-based
Procedure, shortened: as §2

BT-549 = test: NCI screen, growth of human tumor cells: Breast Cancer BT-549; assay type: cell-based; conditions: BT-549 (Breast Cancer), 10^−4 molar
Description: as §1

SF-539 = test: NCI screen, growth of human tumor cells: CNS Cancer SF-539; assay type: cell-based
Procedure, shortened: as §2

HOP-62 = test: NCI screen, growth of human tumor cells: Non-Small Cell Lung HOP-62; assay type: cell-based; conditions: HOP-62 (Non-Small Cell Lung), 10^−4 molar
Procedure, shortened: as §2

NCI-H23 = test: NCI screen, growth of human tumor cells: Non-Small Cell Lung NCI-H23; assay type: cell-based; conditions: NCI-H23, 10^−4 molar
Description: as §1

HL-60 (TB) = test: NCI screen, growth of human tumor cells: Leukemia HL-60 (TB); assay type: cell-based; conditions: HL-60 (TB) (Leukemia), 10^−4 molar
Description: as §1

M14 = test: NCI screen, growth of human tumor cells: Melanoma M14; assay type: cell-based; conditions: M14 (Melanoma), 10^−4 molar
Description: as §1

SNB-75 = test: NCI screen, growth of human tumor cells: CNS Cancer SNB-75; assay type: cell-based; conditions: SNB-75 (CNS Cancer), 10^−4 molar
Description: as §1

HCT-116 = test: NCI screen, growth of human tumor cells: Colon Cancer HCT-116; assay type: cell-based; conditions: HCT-116 (Colon Cancer), 10^−4 molar
Description: as §1

OVCAR-4 = test: NCI screen, growth of human tumor cells: Ovarian Cancer OVCAR-4; assay type: cell-based; conditions: OVCAR-4 (Ovarian Cancer), 10^−4 molar
Description: as §1

RXF-393 = test: NCI screen, growth of human tumor cells: Renal Cancer RXF-393; assay type: cell-based; conditions: RXF-393 (Renal Cancer), 10^−4 molar
Description: as §1

KM12 = test: NCI screen, growth of human tumor cells: Colon Cancer KM12; assay type: cell-based
Description: as §1

ACHN = test: NCI screen, growth of human tumor cells: Renal Cancer ACHN; assay type: cell-based; conditions: ACHN, 10^−4 molar
Procedure, shortened: as §2

SF-268 = test: NCI screen, growth of human tumor cells: CNS Cancer SF-268; assay type: cell-based; conditions: SF-268 (CNS Cancer), 10^−4 molar
Description: as §1

OVCAR-3 = test: NCI screen, growth of human tumor cells: Ovarian Cancer OVCAR-3; assay type: cell-based; conditions: OVCAR-3 (Ovarian Cancer), 10^−4 molar
Procedure, shortened: as §2

SR = test: NCI screen, growth of human tumor cells: Leukemia SR; assay type: cell-based; conditions: SR (Leukemia), 10^−4 molar
Procedure, shortened: as §2

AS49/ATCC = test: NCI screen, growth of human tumor cells: Non-Small Cell Lung AS49/ATCC; assay type: cell-based; conditions: AS49/ATCC (Non-Small Cell Lung), 10^−4 molar
Description: as §1

human cancer cells = test: NCI screen summary over the cancers tested (negative growth of human cancer cells); assay type: cell-based; conditions: cancers with negative growth / cancers tested
Description: as §1
The derivatives in the tables are grouped using the same category as in the tables 1-6.

SF-295 = test: NCI screen, growth of human tumor cells: CNS Cancer SF-295; assay type: cell-based; conditions: SF-295 (CNS Cancer), 10^−4 molar
Description: as §1

SK-MEL-2 = test: NCI screen, growth of human tumor cells: Melanoma SK-MEL-2; assay type: cell-based
Description: as §1

OVCAR-5 = test: NCI screen, growth of human tumor cells: Ovarian Cancer OVCAR-5; assay type: cell-based
Description: as §1

SK-MEL-28 = test: NCI screen, growth of human tumor cells: Melanoma SK-MEL-28; assay type: cell-based; conditions: SK-MEL-28 (Melanoma), 10^−4 molar
Description: as §1

SN12C = test: NCI screen, growth of human tumor cells: Renal Cancer SN12C; assay type: cell-based; conditions: SN12C
Description: as §1

NCI-H460 = test: NCI screen, growth of human tumor cells: Non-Small Cell Lung NCI-H460; assay type: cell-based; conditions: NCI-H460 (Non-Small Cell Lung), 10^−4 molar
Procedure, shortened: as §2

MCF7/ADR-RES = test: NCI screen, growth of human tumor cells: Breast Cancer MCF7/ADR-RES; assay type: cell-based; conditions: MCF7/ADR-RES (Breast Cancer), 10^−4 molar
Description: as §1

HOP-18 = test: NCI screen, growth of human tumor cells: Non-Small Cell Lung HOP-18; assay type: cell-based
Description: as §1

NCI-H226 = test: NCI screen, growth of human tumor cells: Non-Small Cell Lung NCI-H226; assay type: cell-based
Description: as §1

EKVX = test: NCI screen, growth of human tumor cells: Non-Small Cell Lung EKVX; assay type: cell-based; conditions: EKVX
Description: as §1

## CC=CC(=O)C1(C2=C(Cl)C(=O)c3ccccc3C2=O)S(=O)(=O)OCCOS1(=O)=O [NSC 731264, ethylene crotonoyl-[3-chloro-1,4-naptho-2-quinolyl]-1,1-methanedisulfonate]
UO-31
  percent of growth of human tumor cells: 12%
RPMI-8226
  percent of growth of human tumor cells: −18%
U-251
  percent of growth of human tumor cells: −5%
DU-145; DV-145, 10^−4 molar
  % Growth: −68%
DU-145; DV-145, 10^−5 molar
  % Growth: −96%
DU-145; DV-145, 10^−6 molar
  % Growth: 38%
MDA-MB-435
  % Growth: −73%
COLO205
  percent of growth of human tumor cells: 30%
UACC-62
  percent of growth of human tumor cells: −16%
K562
  percent of growth of human tumor cells: 19%
HCT-15
  percent of growth of human tumor cells: −59%
HS 578T
  percent of growth of human tumor cells: −12%
SK-MEL-5; SK-MEL-5, 10^−4 molar
  % Growth: −53%
SK-MEL-5; SK-MEL-5, 10^−5 molar
  % Growth: 28%
BT-549
  percent of growth of human tumor cells: −52%
SF-539; SF-539, 10^−4 molar
  % Growth: −73%
HOP-62
  percent of growth of human tumor cells: −56%
NCI-H23
  % Growth: −72%
HL-60 (TB)
  percent of growth of human tumor cells: 17%
M14
  percent of growth of human tumor cells: −6%
SNB-75
  percent of growth of human tumor cells: −33%
HCT-116
  percent of growth of human tumor cells: 26%
OVCAR-4
  percent of growth of human tumor cells: 19%
RXF-393
  percent of growth of human tumor cells: −50%
KM12; KM12, 10^−4 molar
  % Growth: −68%
KM12; KM12, 10^−5 molar
  % Growth: −75%
KM12; KM12, 10^−6 molar
  % Growth: 66%
ACHN
  % Growth: −82%
SF-268
  percent of growth of human tumor cells: 7%
OVCAR-3
  percent of growth of human tumor cells: 5%
SR
  percent of growth of human tumor cells: 7%
AS49/ATCC
  percent of growth of human tumor cells: −36%
Human cancer cells; 10^−4 M conc.
  Percentage of cancers showing negative growth cancers tested: 65%
Human cancer cells; 10^−5 M conc.
  Percentage of cancers showing negative growth cancers tested: 50%
Human cancer cells; 10^−6 M conc.
  Percentage of cancers showing negative growth cancers tested: 25%
SF-295
  percent of growth of human tumor cells: −57%
SK-MEL-2; SK-MEL-2, 10^−4 molar
  % Growth: 27%
SK-MEL-2; SK-MEL-2, 10^−5 molar
  % Growth: 49%
OVCAR-5; OVCAR-5, 10^−4 molar
  % Growth: −49%
OVCAR-5; OVCAR-5, 10^−5 molar
  % Growth: 51%
OVCAR-5; OVCAR-5, 10^−6 molar
  % Growth: 39%
OVCAR-5; OVCAR-5, 10^−7 molar
  % Growth: 46%
OVCAR-5; OVCAR-5, 10^−8 molar
  % Growth: 52%
SK-MEL-28
  percent of growth of human tumor cells: −59%
SN12C; 10^−4 molar
  % Growth: −67%
SN12C; 10^−5 molar
  % Growth: −99%
SN12C; 10^−6 molar
  % Growth: −4%
NCI-H460
  percent of growth of human tumor cells: 10%
MCF7/ADR-RES
  percent of growth of human tumor cells: 20%

## O=S1(=O)OCCOS(=O)(=O)C1F [NSC 665942, ethylene fluoromethanedisulfonate]
SF-539; SF-539 (CNS Cancer), 10^−4 molar
  percent of growth of human tumor cells: 28%
other
  melting point: 84 to 86 °C
Human cancer cells; 10^−4 M conc.
  Percentage of cancers showing negative growth cancers tested: 10^−4 M conc. = 0/1 = 0%

## O=S1(=O)OCCOS(=O)(=O)C1Br [NSC 648305, ethylene bromomethanedisulfonate]
HOP-18; HOP-18, 10^−4 molar
  % Growth: −61%
HOP-18; HOP-18, 10^−5 molar
  % Growth: 68%
HOP-18; HOP-18, 10^−6 molar
  % Growth: 49%
HOP-18; HOP-18, 10^−7 molar
  % Growth: 63%
HOP-18; HOP-18, 10^−8 molar
  % Growth: 63%
other
  melting point: 128 to 134 °C
Human cancer cells; 10^−4 M conc.
  Percentage of cancers showing negative growth cancers tested: 10^−4 M conc. = 1/3 = 33%
NCI-H226; NCI-H226, 10^−4 molar
  % Growth: 7%
NCI-H226; NCI-H226, 10^−5 molar
  % Growth: 16%
NCI-H226; NCI-H226, 10^−6 molar
  % Growth: 20%
NCI-H226; NCI-H226, 10^−7 molar
  % Growth: 21%
NCI-H226; NCI-H226, 10^−8 molar
  % Growth: 43%
EKVX; 10^−4 molar
  % Growth: 51%
EKVX; 10^−5 molar
  % Growth: 56%
EKVX; 10^−6 molar
  % Growth: 59%
EKVX; 10^−7 molar
  % Growth: 60%
EKVX; 10^−8 molar
  % Growth: 65%

— US8124793B2, “Derivatives of ethylene methanedisulfonate as cancer chemotherapeutic agents” (priority 2007, dated 2012)
